Columns and labels:
[1] = target: hGYS1 enzyme (recombinant hGYS1/GN1 protein) (Homo sapiens (Human), UniProt P13807); assay: GYS1 coupled enzyme assay (PK/LDH); assay type: biochemical; conditions: hGYS1/GN1 50 nM, UDP-Glucose 0.8 mM, G6P 1 mM; geometric mean of at least 2 runs
[2] = system: hGYS1 enzyme / glycogen synthesis in HeLa cells; assay: GYS1 cell based assay (glycogen synthesis, Glucose-glo); design: species or system human; conditions: 24 h incubation, 20 mM glucose, geometric mean of at least 2 runs
Method in brief: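 HeLa cells starved 24 h in medium containing only 1× Glutamax were plated onto compound in medium with 20 mM glucose (1% DMSO final) for 24 h, 37 °C, 5% CO2. Acid lysates were Tris-quenched, glucoamylase-digested (pH 5.3, 1 h, 37 °C) and read by Glucose-glo luminescence. IC50 came from Hill fits, as geometric mean of ≥2 runs.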

[3] = target: hGYS2 enzyme (recombinant hGYS2/GN1 protein) (Homo sapiens (Human), UniProt P54840); assay: GYS2 coupled enzyme assay (PK/LDH); assay type: biochemical; conditions: geometric mean of at least 2 assay runs on separate days, read-out: Avg_IC50
Sequence of hGYS2 enzyme (recombinant hGYS2/GN1 protein) (P54840 whole entry): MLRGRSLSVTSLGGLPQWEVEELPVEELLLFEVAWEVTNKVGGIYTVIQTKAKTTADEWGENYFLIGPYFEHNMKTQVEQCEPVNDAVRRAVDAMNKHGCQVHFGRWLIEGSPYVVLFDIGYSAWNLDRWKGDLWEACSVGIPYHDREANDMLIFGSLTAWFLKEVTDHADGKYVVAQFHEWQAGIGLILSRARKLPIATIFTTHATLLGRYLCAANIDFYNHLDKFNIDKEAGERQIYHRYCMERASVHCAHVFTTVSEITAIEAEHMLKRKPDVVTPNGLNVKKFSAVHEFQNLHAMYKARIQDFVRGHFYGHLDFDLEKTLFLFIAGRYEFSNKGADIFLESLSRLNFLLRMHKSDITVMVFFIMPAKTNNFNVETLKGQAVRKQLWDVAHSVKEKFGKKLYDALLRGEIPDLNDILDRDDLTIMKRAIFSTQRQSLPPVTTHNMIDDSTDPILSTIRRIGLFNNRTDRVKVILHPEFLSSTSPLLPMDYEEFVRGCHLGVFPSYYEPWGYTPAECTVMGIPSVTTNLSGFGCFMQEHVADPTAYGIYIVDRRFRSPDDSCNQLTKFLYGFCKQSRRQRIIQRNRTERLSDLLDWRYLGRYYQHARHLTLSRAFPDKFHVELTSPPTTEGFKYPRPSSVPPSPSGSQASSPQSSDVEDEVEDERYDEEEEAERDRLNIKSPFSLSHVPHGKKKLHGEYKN
Sequence of hGYS2 enzyme (recombinant hGYS2/GN1 protein) (P46976 whole entry partner): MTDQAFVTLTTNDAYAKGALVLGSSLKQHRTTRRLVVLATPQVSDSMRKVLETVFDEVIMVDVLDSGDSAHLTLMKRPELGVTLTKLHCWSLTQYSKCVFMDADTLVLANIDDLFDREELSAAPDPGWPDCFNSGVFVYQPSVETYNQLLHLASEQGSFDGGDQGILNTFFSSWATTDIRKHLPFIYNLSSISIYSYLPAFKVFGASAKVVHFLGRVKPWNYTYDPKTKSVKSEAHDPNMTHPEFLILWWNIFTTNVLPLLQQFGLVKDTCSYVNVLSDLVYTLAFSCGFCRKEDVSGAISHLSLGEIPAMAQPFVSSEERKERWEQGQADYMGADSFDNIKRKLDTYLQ
Method in brief: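 IC50 came from Hill fits of duplicate percent inhibition, based on control-normalized slopes of 340 nm NADH decline read each minute for 10 min. The reaction held recombinant hGYS2/GN1 (200 nM) with glycogen, UDP-glucose, G6P and PEP, plus PK/LDH coupling at pH 7.5 and 2.5% DMSO.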

Sequence of hGYS1 enzyme (recombinant hGYS1/GN1 protein) (P13807 whole entry): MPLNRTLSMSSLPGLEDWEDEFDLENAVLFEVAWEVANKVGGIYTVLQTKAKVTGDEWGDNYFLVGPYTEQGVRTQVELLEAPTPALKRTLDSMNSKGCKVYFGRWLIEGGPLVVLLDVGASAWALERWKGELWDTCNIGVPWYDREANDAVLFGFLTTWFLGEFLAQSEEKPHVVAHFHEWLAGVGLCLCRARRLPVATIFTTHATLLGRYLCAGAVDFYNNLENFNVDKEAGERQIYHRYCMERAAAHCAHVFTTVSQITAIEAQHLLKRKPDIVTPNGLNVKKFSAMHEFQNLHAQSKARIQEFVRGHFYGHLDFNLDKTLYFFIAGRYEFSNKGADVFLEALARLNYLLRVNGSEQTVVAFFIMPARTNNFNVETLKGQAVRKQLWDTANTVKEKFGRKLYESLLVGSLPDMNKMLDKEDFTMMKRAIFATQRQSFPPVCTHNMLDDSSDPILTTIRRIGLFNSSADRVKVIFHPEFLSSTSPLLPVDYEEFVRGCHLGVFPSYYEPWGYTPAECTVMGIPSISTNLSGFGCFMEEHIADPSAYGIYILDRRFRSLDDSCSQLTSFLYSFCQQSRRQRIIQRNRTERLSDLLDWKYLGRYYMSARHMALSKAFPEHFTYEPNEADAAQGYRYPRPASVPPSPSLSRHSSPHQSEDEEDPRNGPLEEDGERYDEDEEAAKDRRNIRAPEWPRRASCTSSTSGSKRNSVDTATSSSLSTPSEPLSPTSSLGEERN
Sequence of hGYS1 enzyme (recombinant hGYS1/GN1 protein) (P46976 whole entry partner): as the sequence (P46976 whole entry partner) above

Molecule `O=C(N[C@@H](c1ccccc1)c1ccc(C2CC2)c(F)c1)[C@@H]1C[C@@H](F)CN1C(=O)Cn1c(=O)[nH]c2ccccc21` [Compound 456, (2S,4R)-N-[(S)-(4-cyclopropyl-3-fluorophenyl)(phenyl)methyl]-4-fluoro-1-[2-(2-oxo-2,3-dihydro-1H-1,3-benzodiazol-1-yl)acetyl]pyrrolidine-2-carboxamide] has an IC50 [1] of 0.055 µM, an IC50 ([2]; Homo sapiens, HeLa, 24 h) of 1.08 µM and an IC50 [3] of over 100 µM.
`CC(C)c1ccc([C@@H](NC(=O)[C@@H]2C[C@@H](F)CN2C(=O)Cn2ncc(N3CCC3)n2)c2ccccc2)nc1F` [Compound 412, (2S,4R)-1-{2-[4-(azetidin-1-yl)-2H-1,2,3-triazol-2-yl]acetyl}-4-fluoro-N-[(S)-[6-fluoro-5-(propan-2-yl)pyridin-2-yl](phenyl)methyl] pyrrolidine-2-carboxamide] was tested, and the IC50 [1] was 0.007 µM, the IC50 ([2]; Homo sapiens, HeLa, 24 h) was 0.12 µM and the IC50 [3] was over 100 µM.
`CCn1cccc(CC(=O)N2C[C@H](F)C[C@H]2C(=O)N[C@@H](c2ccccc2)c2ccc(C(C)C)c(F)n2)c1=O` [Compound 795, (2S,4R)-1-[2-(1-ethyl-2-oxo-1,2-dihydropyridin-3-yl)acetyl]-4-fluoro-N-[(S)-[6-fluoro-5-(propan-2-yl)pyridin-2-yl](phenyl)methyl] pyrrolidine-2-carboxamide] was tested, and the IC50 [1] was 0.011 µM, the IC50 ([2]; Homo sapiens, HeLa, 24 h) was 0.24 µM and the IC50 [3] was over 100 µM.
Work on `CC(C)c1ccc(C(CC2CC2)NC(=O)[C@@H]2C[C@@H](F)CN2C(=O)Cc2cnn[nH]2)cc1F` (single isomer, unassigned) [Compound 653, (2S,4R)-N-[(1S) or (1R)-2-cyclopropyl-1-[3-fluoro-4-(propan-2-yl)phenyl]ethyl]-4-fluoro-1-[2-(1H-1,2,3-triazol-5-yl)acetyl]pyrrolidine-2-carboxamide] yielded an IC50 [1] of 0.262 µM, an IC50 ([2]; Homo sapiens, HeLa, 24 h) of 3.75 µM and an IC50 [3] of over 100 µM.
In the case of `CC(C)c1ccc([C@@H](NC(=O)[C@@H]2C[C@@H](F)CN2C(=O)Cc2ccn(C)n2)c2ccccc2)cc1` [Compound 49, (2S,4R)-4-fluoro-1-[2-(1-methyl-1H-pyrazol-3-yl)acetyl]-N-[(S)-phenyl[4-(propan-2-yl)phenyl]methyl]pyrrolidine-2-carboxamide], the IC50 [1] is reported as 0.039 µM, the IC50 ([2]; Homo sapiens, HeLa, 24 h) is reported as 0.36 µM and the IC50 [3] is reported as over 100 µM.
`Cc1ccc2[nH]cc(CC(=O)N3C[C@H](F)C[C@H]3C(=O)N[C@@H](c3ccccc3)c3ccc(C(C)C)cc3)c2c1` [Compound 138, (2S,4R)-4-fluoro-1-[2-(5-methyl-1H-indol-3-yl)acetyl]-N-[(S)-phenyl[4-(propan-2-yl)phenyl]methyl]pyrrolidine-2-carboxamide] was tested, and the IC50 [1] was 0.012 µM, the IC50 ([2]; Homo sapiens, HeLa, 24 h) was 0.27 µM and the IC50 [3] was over 100 µM.
`CC(C)c1ccc([C@@H](NC(=O)[C@@H]2C[C@@H](F)CN2C(=O)Cc2ccno2)c2ccccc2)cc1F` [Compound 338, (2S,4R)-4-fluoro-N-[(S)-[3-fluoro-4-(propan-2-yl)phenyl](phenyl)methyl]-1-[2-(1,2-oxazol-5-yl)acetyl]pyrrolidine-2-carboxamide] gave an IC50 [1] of 0.034 µM, an IC50 ([2]; Homo sapiens, HeLa, 24 h) of 0.39 µM and an IC50 [3] of over 100 µM.
Molecule `O=C(N[C@@H](c1ccccc1)c1ccc(C2CC(F)(F)C2)c(F)n1)[C@@H]1C[C@@H](F)CN1C(=O)CNC(=O)N1CC(F)(F)C1` [Compound 512, (2S,4R)-1-{2-[(3,3-difluoroazetidine-1-carbonyl)amino]acetyl}-N-[(S)-[5-(3,3-difluorocyclobutyl)-6-fluoropyridin-2-yl](phenyl)methyl]-4-fluoropyrrolidine-2-carboxamide] has an IC50 [1] of 0.015 µM, an IC50 ([2]; Homo sapiens, HeLa, 24 h) of 0.29 µM and an IC50 [3] of over 100 µM.
`CC(C)c1ccc([C@@H](NC(=O)[C@@H]2C[C@@H](F)CN2C(=O)Cn2cnc3ccccc32)c2ccccc2)cc1` [Compound 77, (2S,4R)-1-[2-(1H-1,3-benzodiazol-1-yl)acetyl]-4-fluoro-N-[(S)-phenyl[4-(propan-2-yl)phenyl]methyl]pyrrolidine-2-carboxamide] was tested, and the IC50 [1] was 0.008 µM, the IC50 ([2]; Homo sapiens, HeLa, 24 h) was 0.12 µM and the IC50 [3] was over 100 µM.
With `CC(C)c1ccc([C@@H](NC(=O)[C@@H]2C[C@@H](F)CN2C(=O)Cn2ccc(C(F)F)n2)c2ccccc2)nc1F` [Compound 789, (2S,4R)-1-{2-[3-(difluoromethyl)-1H-pyrazol-1-yl]acetyl}-4-fluoro-N-[(S)-[6-fluoro-5-(propan-2-yl)pyridin-2-yl](phenyl)methyl] pyrrolidine-2-carboxamide] the IC50 [1] was 0.01 µM, the IC50 ([2]; Homo sapiens, HeLa, 24 h) was 0.28 µM and the IC50 [3] was over 100 µM.
`Cc1nccc(NCC(=O)N2C[C@H](F)C[C@H]2C(=O)N[C@@H](c2ccccc2)c2ccc(C(C)C)cn2)n1` [Compound 269, (2S,4R)-4-fluoro-1-{2-[(2-methylpyrimidin-4-yl)amino]acetyl}-N-[(S)-phenyl[5-(propan-2-yl)pyridin-2-yl]methyl]pyrrolidine-2-carboxamide] showed an IC50 [1] of 0.014 µM, an IC50 ([2]; Homo sapiens, HeLa, 24 h) of 0.24 µM and an IC50 [3] of over 100 µM.
`Cn1c(=O)n(CC(=O)N2C[C@H](F)C[C@H]2C(=O)N[C@@H](c2ccccc2)c2ccc(C3(C)CC3)c(F)c2)c2ccccc21` [Compound 568, (2S,4R)-4-fluoro-N-[(S)-[3-fluoro-4-(1-methylcyclopropyl)phenyl](phenyl)methyl]-1-[2-(3-methyl-2-oxo-2,3-dihydro-1H-1,3-benzodiazol-1-yl)acetyl]pyrrolidine-2-carboxamide] gave an IC50 [1] of 0.089 µM, an IC50 ([2]; Homo sapiens, HeLa, 24 h) of 0.96 µM and an IC50 [3] of 94.2 µM.
`CC(C)c1ccc([C@@H](NC(=O)[C@@H]2C[C@@H](F)CN2C(=O)[C@H](C)NC(=O)N(C)C)c2ccccc2)nc1` [Compound 273, (2S,4R)-1-[(2S)-2-[(dimethylcarbamoyl)amino]propanoyl]-4-fluoro-N-[(S)-phenyl[5-(propan-2-yl)pyridin-2-yl]methyl]pyrrolidine-2-carboxamide] gave an IC50 [1] of 0.149 µM, an IC50 ([2]; Homo sapiens, HeLa, 24 h) of 1.79 µM and an IC50 [3] of over 100 µM.
In the case of `O=C(N[C@@H](c1ccccc1)c1ccc(C2CC(F)(F)C2)c(F)c1)[C@@H]1C[C@@H](F)CN1C(=O)CNC(=O)N1CCC1` [Compound 544, (2S,4R)-1-((azetidine-1-carbonyl)glycyl)-N—((S)-(4-(3,3-difluorocyclobutyl)-3-fluorophenyl)(phenyl)methyl)-4-fluoropyrrolidine-2-carboxamide], the IC50 [1] is reported as 0.011 µM, the IC50 ([2]; Homo sapiens, HeLa, 24 h) is reported as 0.26 µM and the IC50 [3] is reported as over 100 µM.
Work on `O=C(N[C@@H](c1ccccc1)c1ccc(C2CC2)c(F)n1)[C@@H]1C[C@@H](F)CN1C(=O)CNc1ncco1` [Compound 309, (2S,4R)-N-[(S)-(5-cyclopropyl-6-fluoropyridin-2-yl)(phenyl)methyl]-4-fluoro-1-{2-[(1,3-oxazol-2-yl)amino]acetyl}pyrrolidine-2-carboxamide] yielded an IC50 [1] of 0.055 µM, an IC50 ([2]; Homo sapiens, HeLa, 24 h) of 0.97 µM and an IC50 [3] of over 100 µM.
`Cn1c(CC(=O)N2C[C@H](F)C[C@H]2C(=O)N[C@@H](c2ccccc2)c2ccc(C3(C)CC3)c(F)n2)cc2ccccc21` [Compound 591, (2S,4R)-4-fluoro-N-[(S)-[6-fluoro-5-(1-methylcyclopropyl)pyridin-2-yl](phenyl)methyl]-1-[2-(1-methyl-1H-indol-2-yl)acetyl]pyrrolidine-2-carboxamide] showed an IC50 [1] of 0.032 µM, an IC50 ([2]; Homo sapiens, HeLa, 24 h) of 0.31 µM and an IC50 [3] of over 100 µM.
Molecule `O=C(N[C@@H](c1ccccc1)c1ccc(C2CC2)c(F)c1)[C@@H]1C[C@@H](F)CN1C(=O)CNC(=O)N1CCN(CC(F)(F)F)CC1` [Compound 487, N-{2-[(2S,4R)-2-{[(S)-(4-cyclopropyl-3-fluorophenyl)(phenyl)methyl]carbamoyl}-4-fluoropyrrolidin-1-yl]-2-oxoethyl}-4-(2,2,2-trifluoroethyl) piperazine-1-carboxamide] has an IC50 [1] of 0.068 µM, an IC50 ([2]; Homo sapiens, HeLa, 24 h) of 2.09 µM and an IC50 [3] of over 100 µM.
`CCn1c(=O)ccn(CC(=O)N2C[C@H](F)C[C@H]2C(=O)N[C@@H](c2ccccc2)c2ccc(C3CC3)c(F)n2)c1=O` [Compound 735, (2S,4R)-N-[(S)-(5-cyclopropyl-6-fluoropyridin-2-yl)(phenyl)methyl]-1-[2-(3-ethyl-2,4-dioxo-1,2,3,4-tetrahydropyrimidin-1 yl)acetyl]-4-fluoropyrrolidine-2-carboxamide] showed an IC50 [1] of 0.005 µM, an IC50 ([2]; Homo sapiens, HeLa, 24 h) of 0.27 µM and an IC50 [3] of over 100 µM.
With `CC(C)c1ccc([C@@H](NC(=O)[C@@H]2C[C@@H](F)CN2C(=O)Cc2cccc3ncccc23)c2ccccc2)nc1` [Compound 247, (2S,4R)-4-fluoro-N-[(S)-phenyl[5-(propan-2-yl)pyridin-2-yl]methyl]-1-[2-(quinolin-5-yl)acetyl]pyrrolidine-2-carboxamide] the IC50 [1] was 0.01 µM, the IC50 ([2]; Homo sapiens, HeLa, 24 h) was 0.18 µM and the IC50 [3] was over 100 µM.
`CC(C)c1ccc([C@@H](NC(=O)[C@@H]2[C@H]3C[C@H]3CN2C(=O)Cc2cnn[nH]2)c2ccccc2)nc1F` [Compound 415, (1S,2S,5R)-N-[(S)-[6-fluoro-5-(propan-2-yl)pyridin-2-yl](phenyl)methyl]-3-[2-(1H-1,2,3-triazol-5-yl)acetyl]-3-azabicyclo[3.1.0] hexane-2-carboxamide] gave an IC50 [1] of 0.048 µM, an IC50 ([2]; Homo sapiens, HeLa, 24 h) of 0.71 µM and an IC50 [3] of over 100 µM.
Work on `CC(C(=O)N1C[C@H](F)C[C@H]1C(=O)N[C@@H](c1ccccc1)c1ccc(C2CC2)c(F)c1)n1cnc2ccccc21` (single isomer, unassigned) [Compound 810, (2S,4R)-1-[(2R) or (2S)-2-(1H-1,3-benzodiazol-1-yl)propanoyl]-N-[(S)-(4-cyclopropyl-3-fluorophenyl)(phenyl)methyl]-4-fluoropyrrolidine-2-carboxamide] yielded an IC50 [1] of 0.357 µM, an IC50 [2] of 5.28 µM and an IC50 [3] of over 100 µM.
